Tested on: mice
Test: Neuropharmacological assay (SmartCube), behavioral signature of compound-treated mice
Type: in vivo
Conditions: i.p. 15 min before behavioral test, most efficacious dose(s) of 3 doses
Text: Neurosci. […] As reported in Roberds, because psychiatric diseases generally result from disorders of cell-cell communication or circuitry, intact systems are useful in detecting improvement in disease-relevant endpoints. These endpoints are typically behavioral in nature, often requiring human observation and interpretation. To facilitate testing of multiple compounds for behavioral effects relevant to psychiatric disease, PsychoGenics, Inc. (Tarrytown, N.Y., “PGI”) developed SmartCube™, an automated system in which behaviors of compound-treated mice are captured by digital video and analyzed with computer algorithms. […] PGI Analytical Systems uses data from SmartCube™ to compare the behavioral signature of a test compound to a database of behavioral signatures obtained using a large set of diverse reference compounds. (The composition of the database as well as validation of the method is further described in Roberds). In this way, the neuropharmacological effects of a test compound can be predicted by similarity to major classes of compounds, such as antipsychotics, anxiolytics and antidepressants.
The SmartCube™ system produces an activity signature indicating the probability that the activity of the test compound at the administered dose matches a given class of neuropharmacological agents. (See, e.g., Roberds, FIGS. 2 and 3). The test compound is simultaneously compared against multiple classes of agents; thus, a separate probability is generated for each behavioral effect measured (e.g., anxiolytic activity, analgesic activity, etc.). In Table 4, these probabilities are reported for each behavioral effect measured as follows:
Provided compounds were dissolved in a mixture of Pharmasolve™ (N-methyl-2-pyrrolidone), polyethylene glycol and propylene glycol, and were injected i.p. 15 min. before the behavioral test. For each compound, injections were administered at 3 different doses. For each behavioral effect measured, results for the most efficacious dose(s) are presented.

Structure (SMILES) | AD: ADHD (probability that behavioral signature matches class) | AG: analgesic (probability that behavioral signature matches class) | AX: anxiolytic (probability that behavioral signature matches class) | CE: cognitive enhancer (probability that behavioral signature matches class) | DP: anti-depressant (probability that behavioral signature matches class) | HA: hallucinogen (probability that behavioral signature matches class) | MS: mood stabilizer (probability that behavioral signature matches class) | PS: anti-psychotic (probability that behavioral signature matches class) | SD: sedative hypnotic (probability that behavioral signature matches class) | UN: uncharacterized CNS activity (probability that behavioral signature matches class) | XG: anxiogenic (probability that behavioral signature matches class)
Fc1ccc2c(c1)CCO[C@@H]2[C@@H]1CCN1 [Compound I-89, (S)-2-((S)-6-fluoroisochroman-1-yl)azetidine] | ++ (5% ≤ ++ <25%) | ++ (5% ≤ ++ <25%) | ++ (5% ≤ ++ <25%) | ++ (5% ≤ ++ <25%) | +++ (25% ≤ +++ <50%) | + (LOQ ≤ + <5%) | ++ (5% ≤ ++ <25%) | +++ (25% ≤ +++ <50%) | + (LOQ ≤ + <5%) | + (LOQ ≤ + <5%) | + (LOQ ≤ + <5%)
c1ccc2c(c1)CCO[C@H]2C1CNC1 [Compound I-115, (S)-3-(isochroman-1-yl)azetidine] | + (LOQ ≤ + <5%) | ++ (5% ≤ ++ <25%) | ++ (5% ≤ ++ <25%) | ++ (5% ≤ ++ <25%) | ++ (5% ≤ ++ <25%) | + (LOQ ≤ + <5%) | + (LOQ ≤ + <5%) | ++ (5% ≤ ++ <25%) | ++ (5% ≤ ++ <25%) | +++ (25% ≤ +++ <50%) | + (LOQ ≤ + <5%)
Fc1cccc2c1[C@@H]([C@@H]1CCN1)OCC2 [Compound I-84, (S)-2-((S)-8-fluoroisochroman-1-yl)azetidine] | + (LOQ ≤ + <5%) | + (LOQ ≤ + <5%) | ++ (5% ≤ ++ <25%) | + (LOQ ≤ + <5%) | ++ (5% ≤ ++ <25%) | + (LOQ ≤ + <5%) | ++ (5% ≤ ++ <25%) | ++++ (50% ≤ ++++) | ++ (5% ≤ ++ <25%) | + (LOQ ≤ + <5%) | + (LOQ ≤ + <5%)
FC1(F)CO[C@H]([C@@H]2CCCN2)c2ccccc21 [Compound I-139, (S)-2-((S)-4,4-difluoroisochroman-1-yl)pyrrolidine] | + (LOQ ≤ + <5%) | + (LOQ ≤ + <5%) | ++ (5% ≤ ++ <25%) | ++ (5% ≤ ++ <25%) | ++ (5% ≤ ++ <25%) | + (LOQ ≤ + <5%) | + (LOQ ≤ + <5%) | +++ (25% ≤ +++ <50%) | + (LOQ ≤ + <5%) | + (LOQ ≤ + <5%) | + (LOQ ≤ + <5%)
OC1CO[C@@H]([C@@H]2CCCN2)c2ccc(F)cc21 (stereo partly drawn) [Compound I-134, (1R)-6-fluoro-1-((S)-pyrrolidin-2-yl)isochroman-4-ol] | + (LOQ ≤ + <5%) | + (LOQ ≤ + <5%) | ++ (5% ≤ ++ <25%) | + (LOQ ≤ + <5%) | + (LOQ ≤ + <5%) | + (LOQ ≤ + <5%) | + (LOQ ≤ + <5%) | + (LOQ ≤ + <5%) | + (LOQ ≤ + <5%) | + (LOQ ≤ + <5%) | + (LOQ ≤ + <5%)
Fc1ccc2c(c1)[C@@H]([C@H]1CCN1)OCC2 [Compound I-88, (R)-2-((S)-7-fluoroisochroman-1-yl)azetidine] | + (LOQ ≤ + <5%) | ++ (5% ≤ ++ <25%) | +++ (25% ≤ +++ <50%) | ++ (5% ≤ ++ <25%) | ++ (5% ≤ ++ <25%) | + (LOQ ≤ + <5%) | + (LOQ ≤ + <5%) | ++ (5% ≤ ++ <25%) | + (LOQ ≤ + <5%) | +++ (25% ≤ +++ <50%) | + (LOQ ≤ + <5%)
N#Cc1ccc2c(c1)CCO[C@@H]2[C@@H]1CCCN1 [Compound I-43, (S)-1-((S)-pyrrolidin-2-yl)isochroman-6-carbonitrile] | + (LOQ ≤ + <5%) | ++ (5% ≤ ++ <25%) | +++ (25% ≤ +++ <50%) | ++ (5% ≤ ++ <25%) | ++ (5% ≤ ++ <25%) | + (LOQ ≤ + <5%) | + (LOQ ≤ + <5%) | ++ (5% ≤ ++ <25%) | + (LOQ ≤ + <5%) | + (LOQ ≤ + <5%) | + (LOQ ≤ + <5%)
Cc1ccc2c(c1)[C@H]([C@H]1CCCN1)OCC2 [Compound I-28, (R)-2-((R)-7-methylisochroman-1-yl)pyrrolidine] | + (LOQ ≤ + <5%) | ++ (5% ≤ ++ <25%) | +++ (25% ≤ +++ <50%) | + (LOQ ≤ + <5%) | ++ (5% ≤ ++ <25%) | + (LOQ ≤ + <5%) | + (LOQ ≤ + <5%) | ++ (5% ≤ ++ <25%) | + (LOQ ≤ + <5%) | ++ (5% ≤ ++ <25%) | + (LOQ ≤ + <5%)
Fc1ccc2c(c1)[C@@H]([C@H]1CCCN1)OCCC2 [Compound I-108, (R)-2-((S)-8-fluoro-1,3,4,5-tetrahydrobenzo[c]oxepin-1-yl)pyrrolidine] | + (LOQ ≤ + <5%) | ++ (5% ≤ ++ <25%) | ++ (5% ≤ ++ <25%) | ++ (5% ≤ ++ <25%) | ++ (5% ≤ ++ <25%) | + (LOQ ≤ + <5%) | + (LOQ ≤ + <5%) | +++ (25% ≤ +++ <50%) | ++ (5% ≤ ++ <25%) | ++ (5% ≤ ++ <25%) | + (LOQ ≤ + <5%)
c1cc2c(c3c1CO[C@@H]3[C@@H]1CCCN1)OCO2 [Compound I-142, (S)-2-((S)-6,8-dihydro-[1,3]dioxolo[4,5-e]isobenzofuran-8-yl)-pyrrolidine] | + (LOQ ≤ + <5%) | ++ (5% ≤ ++ <25%) | +++ (25% ≤ +++ <50%) | ++ (5% ≤ ++ <25%) | ++ (5% ≤ ++ <25%) | + (LOQ ≤ + <5%) | + (LOQ ≤ + <5%) | ++ (5% ≤ ++ <25%) | + (LOQ ≤ + <5%) | ++ (5% ≤ ++ <25%) | + (LOQ ≤ + <5%)
